Laboratory results reported in US6030980A, “Agent for the treatment of infections” (priority 1994, dated 2000).

Tests used:
[1] = system: herpes simplex virus type I; assay: animal or person; format: in vivo, BALB/c male mice; conditions: thermally injured mice, HSV type I 3×10^3 PFU/kg i.p., oral 1 μg/kg of aconite-alkaloid; for responders at 0.001 mg/kg: Mus musculus, 600 h, read-out: survival rate; for average survival days: 25 days
[2] = Acute toxicity of aconite-alkaloids; conditions: in vivo
[3] = system: suppressor cell activities induced in thermally injured mice; format: cell-based, BALB/c mice; conditions: 1 μg/kg of aconite-alkaloid given twice to contrasuppressor cell donors; normal model 12413 ± 1438, susceptibility model 2650 ± 70
[4] = J. Pharm. Dyu.7, 836-848 (1984); cited from earlier work
[5] = system: herpes simplex virus type I; assay: Survival of mice infected with a lethal dose of herpes simplex virus type I (Experimental Example 2); format: in vivo, BALB/c mice; conditions: HSV type I 3×10^5 PFU/kg i.p., 10 μg/kg oral, before and after infection
Description: In this example, 7-week-old BALB/c mice were infected intraperioneally with a lethal dose (3×10^5 PFU/kg) of herpes simplex virus type I. Two days before the infection, 1 day and 4 days after the infection, the active ingredient of the present agent (10 μg/kg) or physiological saline (control) was orally administered through a stomach probe into the mice. Twenty-five days after the infection, their survival rate was determined to evaluate the action of the active ingredient. In this experiment, the experimental mice were given the active ingredient of the present agent before and after infection with the virus to evaluate its action mainly on the prevention and treatment of the virus infection.

CMV = conditions: SCID mice, 10 μg/kg/day oral
[6] = system: AIDS virus (LP-BM5 virus); assay: Survival of opportunistic infection model mice infected with AIDS virus (LP-BM5 virus) (Experimental Example 3); format: in vivo; conditions: 1 μg/kg oral, observed for 150 days, saline 0%
Description: Mice as opportunistic infection model inoculated intraperioneally with 0.1 ml/mouse of a culture supernatant of AIDS virus (LP-BM5 virus) infected SC-1 cells were orally given benzoylmesaconine or physiological saline.

[7] = system: suppressor cell activities; assay: Contrasuppressor cell activities in MLTR, suppressor cells from LP-BM5 virus infected mice; format: cell-based; conditions: 1 μg/kg, suppressor cells from mice 110 days after infection with LP-BM5 virus
Description: Contrasuppressor cell activities, i.e. cells activities suppressing the suppressor cell activities induced in thermally injured mice were determined in mixed lymphocyte tumor cell reaction (MLTR) by mixing and incubating the following cells for 5 days in a 96-wells round-bottom microplate.
Reaction cells: Spleen mononuclear cells (referred to hereinafter as SMNCs) (5.0×10^4 cells/well) obtained from normal BALB/c mice.
Stimulator cells: EL-4 tumor cells (5.0×10^4 cells/well).
Suppressor cells: SMNCs (2.5×10^5 cells/well) obtained from the model of increased susceptibility to infections. […]
Before incubation, the cells except for the reaction cells were treated with 40 μg/ml of mitomycin C solution at 37° C. for 30 minutes. Twenty-four hours before the conclusion of 3-days incubation, 0.5 μCi/well of ^3 H-thymidine was added to the well, and the amount of ^3 H-thymidine incorporated into the reaction cells was determined in a liquid scintillation counter to evaluate the contrasuppressor cell activities induced against the suppressor cell activities by administration of the active ingredient of the present agent.
The contrasuppressor cell activities induced against suppressor cell activities by administration of benzoylmesaconine was evaluated in the same manner as in "(3) Measurement of contrasuppressor cell activities" in Experimental Example 1. […]

cytomegalovirus (CMV) = assay: Survival of thermally injured mice infected with cytomegalovirus (Experimental Example 7); conditions: CMV 2.5×10^3 PFU/mouse i.v., 10 μg/kg/day oral, 25 days
[8] = twenty-five days after infection

Compound | responders at 0.001 mg/kg [1, 8] [%] | average survival days [1] [days] | LD50 [2] [mg/kg] | incorporation of ^3 H-thymidine [3] | further results
COCC12CN(C)C3C4C(OC)C1C3(C(OC)CC2O)C1CC2(O)C(OC)C(=O)C4C1C2OC(=O)c1ccccc1 (stereo not drawn) [16-epi-pyromesaconitine] | 80 | > 22.4 | 20 to 500 | 16891 ± 2232 CPM ± SE | 
COCC12CCC(OC)C34C5CC6(O)C(O)C5C(O)(C(O)C6OC)C(C(OC)C13)C4N(C)C2 (centres unmarked) [hypaconine] | 85 | > 23.1 | 20 to 500 | 14111 ± 2232 CPM ± SE | 
COCC12CCC(OC)C34C5CC6(O)C(OC)C(O)C(O)(C5C6OC(=O)c5ccccc5)C(C(OC)C13)C4N(C)C2 (centres unmarked) [benzoylhypaconine] | 80 | > 22.4 | 20 to 500 | 21319 ± 903 CPM ± SE | 
CCN1CC2(COC)C(O)CC(OC)C34C5CC6(O)C(OC)C(=O)C(C5C6OC(=O)c5ccccc5)C(C(OC)C23)C14 (stereo not drawn) [16-epi-pyraconitine] | 70 | > 21.2 | 20 to 500 | 15654 ± 1209 CPM ± SE | 
CCCCC[C@H](O)CC(=O)CCc1ccc(O)c(OC)c1 [gingerol] |  |  |  |  | acute toxicity LD50 [4]: about 250 mg/kg; average survival days ([5]; 25 days): > 24.4 days; survival rate [5, 8]: 90%
CCN1CC2(COC)C(O)CC(OC)C34C5CC6(O)C(OC)C(O)C(O)(C5C6OC(=O)c5ccc(OC)cc5)C(C(OC)C23)C14 (centres unmarked) [14-anisoylaconine] | 80 | > 22.5 | 20 to 500 | 12720 ± 1578 CPM ± SE | 
C=C1[C@H]2C[C@@H]3[C@H]4N5C[C@@]6(C)[C@H]7[C@@H]5C[C@]3([C@@H]1O)[C@@](O)(C2)[C@]74C[C@@H](OC(=O)c1ccccc1)[C@@H]6O [ignavine] |  | > 21.9 |  | 12831 ± 2255 CPM ± SE | survival rate [1, 8]: 75%
CCN1CC2(COC)CCC(O)C34C5CC6C(OC)CC(O)(C5C6O)C(C(OC)C23)C14 (centres unmarked) [neoline] | 80 | > 22.3 | 20 to 500 | 13744 ± 526 CPM ± SE | 
C=C1C2CCC3(C4CC5C6(C)CCCC5(C(O4)N(CCO)C6)C3C2)C1O (centres unmarked) [ajaconine] | 80 | > 22.3 | 20 to 500 | 17655 ± 1879 CPM ± SE | 
CCN1CC2(COC)C(O)CC(OC)C34C5CC6(O)C(OC)C(O)C(O)(C5C6OC(=O)c5ccccc5)C(C(OC)C23)C14 (centres unmarked) [benzoylaconine] | 80 | > 22.5 | 20 to 500 | 16140 ± 1738 CPM ± SE | 
COCC12CN(C)C3C4C(OC)C1C3(C(OC)CC2O)C1CC2(O)C(OC)C(O)C4(O)C1C2OC(=O)c1ccccc1 (centres unmarked) [benzoylmesaconine] | 85 | > 21.5 | 20 to 500 | 14754 ± 1832 CPM ± SE | survival rate (CMV; CMV 2.5×10^3 PFU/mouse, saline 0%): 100%; protective effect on CMV (CMV): protective effect; survival rate [6]: 80%; suppressing rate ([7]; saline 81%): 4%; incorporation of ^3 H-thymidine ([7]; saline 1,730 ± 289): 8,826 ± 535 CPM ± SE; survival rate (cytomegalovirus (CMV); saline 0%): 100%; average survival days (cytomegalovirus (CMV); saline 12.4): > 22.1 days
COCC12CN(C)C3C4C(OC)C1C3(C(OC)CC2O)C1CC2(O)C(O)C1C4(O)C(O)C2OC (centres unmarked) [mesaconine] | 85 | > 23.1 | 20 to 500 | 15791 ± 2778 CPM ± SE | 
